ChEMBL document CHEMBL1125482, “Pharmacokinetics of catechol cephalosporins. The effect of incorporating substituents into the catechol moiety on pharmacokinetics in a marmoset model” (J Med Chem, 1992)
Values after ≈ are worked out from the molar mass of the structure shown.

How the values were obtained:
Staphylococcus aureus [1] = assay: microbe, parasite or virus in culture
Description: Compound was tested for antimicrobial activity against Staphylococcus aureus Oxford strain

Escherichia coli [2] = assay: microbe, parasite or virus in culture
Description: Compound was tested for antimicrobial activity against Escherichia coli DC2 strain (permeability mutant)

Enterobacter cloacae [3] = assay: microbe, parasite or virus in culture
Description: Compound was tested for antimicrobial activity against Enterobacter cloacae inducible type I beta-lactamase producer (P99-) strain

in vivo = details: callithrix, serum, iv
Description: Serum T1/2 in marmosets (IV dose)

Canis familiaris = organism: Canis familiaris; details: dog, in vivo, iv
Pseudomonas aeruginosa [4] = assay: microbe, parasite or virus in culture
Description: Compound was tested for antimicrobial activity against Pseudomonas aeruginosa PU21 strain

Staphylococcus aureus [5] = assay: microbe, parasite or virus in culture; remark: listed apart in the source
Description: Compound was tested for antimicrobial activity against Staphylococcus aureus penicillin sensitive Staphylococcus aureus (147N) strain

Enterobacter cloacae [6] = assay: microbe, parasite or virus in culture; remark: listed apart in the source
Description: Compound was tested for antimicrobial activity against Enterobacter cloacae constitutive derepressed type I beta-lactamase producer (P99+) strain

Pseudomonas aeruginosa [7] = assay: microbe, parasite or virus in culture; remark: listed apart in the source
Escherichia coli [8] = assay: microbe, parasite or virus in culture; remark: listed apart in the source
Description: Compound was tested for antimicrobial activity against Escherichia coli DC0 strain (parent organism)

Mus musculus [9] = assay: Compound was evaluated in vivo for antibacterial activity against Pseudomonas aeruginosa (strain 101010) in mice; format: functional; details: read-out: PD50
[10] = Urinary recovery in marmosets (IV dose); format: ADME, organism-based; details: callithrix, urine, read-out: Recovery
Homo sapiens [11] = organism: Homo sapiens; assay: Compound is evaluated for serum protein binding in human blood […]; format: functional
Mus musculus [12] = assay: Compound was evaluated in vivo for antibacterial activity against Pseudomonas aeruginosa (strain 101010) in mice; range 1.0-6.0 mg/Kg; format: functional
Homo sapiens [13] = organism: Homo sapiens; assay: Compound was tested for serum protein binding in human blood; format: functional
Pseudomonas aeruginosa [14] = assay: Compound was tested for antimicrobial activity against Pseudomonas aeruginosa constitutive derepressed type I beta-lactamase producer (18SH) strain; format: functional

Description for physchem: Dissociation constant (pKa)

SMILES | MIC (Staphylococcus aureus [1]) [µg/mL] | MIC (Escherichia coli [2]) [µg/mL] | MIC (Enterobacter cloacae [3]) [µg/mL] | half-life (in vivo) [h] | AUC (Canis familiaris) [mg/h/L] | MIC (Pseudomonas aeruginosa [4]) [µg/mL] | MIC (Staphylococcus aureus [5]) [µg/mL] | MIC (Enterobacter cloacae [6]) [µg/mL] | MIC (Pseudomonas aeruginosa [7]) [µg/mL] | MIC (Escherichia coli [8]) [µg/mL] | pKa (physchem) | ED50 (Mus musculus [9]) [mg/kg] | dose excreted [10] [%] | Activity (Homo sapiens [11]) [%] | PD50 (Mus musculus [12]) [µg/mL] | Activity (Homo sapiens [13]) [%] | MIC (Pseudomonas aeruginosa [14]) [µg/mL]
CCN(CC1=C(C(=O)O)N2C(=O)[C@@H](NC(=O)/C(=N\OC(C)(C)C(=O)O)c3csc(N)n3)[C@H]2SC1)C(=O)c1cc(O)c(O)c(Br)c1 | 32 (≈ 44 µM) | 0.015 (≈ 0.0206 µM) | 0.25 (≈ 0.344 µM) | 1 | 21.8 | 0.03 (≈ 0.0412 µM) | 32 (≈ 44 µM) | 1 (≈ 1.37 µM) | 0.06 (≈ 0.0825 µM) | 0.015 (≈ 0.0206 µM) | 7.3 |  |  |  |  |  | 
CC(C)(O/N=C(\C(=O)N[C@@H]1C(=O)N2C(C(=O)O)=C(CNC(=O)c3cc(O)c(O)c(Cl)c3)CS[C@H]12)c1csc(N)n1)C(=O)O |  |  |  | 4.6 | 638.3 |  |  |  |  |  | 7 | 0.004 |  |  |  |  | 
CO/N=C(\C(=O)N[C@@H]1C(=O)N2C(C(=O)O)=C(CSc3nc(=O)c(O)nn3C)CS[C@H]12)c1csc(N)n1 [CEFTRIAXONE] |  |  |  |  |  |  |  |  |  |  |  |  | 25.4 | 94.5 |  |  | 
CC(C)(O/N=C(\C(=O)N[C@@H]1C(=O)N2C(C(=O)[O-])=C(C[n+]3ccccc3)CS[C@H]12)c1csc(N)n1)C(=O)O [CEFTAZIDIME] | 4 (≈ 7.32 µM) | 0.06 (≈ 0.11 µM) | 0.125 (≈ 0.229 µM) | 0.7 | 14 | 1 (≈ 1.83 µM) | 8 (≈ 14.6 µM) | 32 (≈ 58.5 µM) | 16 (≈ 29.3 µM) | 0.125 (≈ 0.229 µM) |  |  |  |  | 1 |  | 
CC(C)(O/N=C(\C(=O)N[C@@H]1C(=O)N2C(C(=O)O)=C(CNC(=O)c3cc(O)c(O)c(C#N)c3)CS[C@H]12)c1csc(N)n1)C(=O)O |  |  |  | 5.3 | 394.5 |  |  |  |  |  | 5.5 | 0.013 | 8.7 |  |  | 96.7 | 
CCO/N=C(\C(=O)N[C@@H]1C(=O)N2C(C(=O)O)=C(CNC(=O)c3ccc(O)c(O)c3)CS[C@H]12)c1csc(N)n1 | 2 (≈ 3.56 µM) | 0.08 (≈ 0.142 µM) | 0.5 (≈ 0.889 µM) | 0.8 | 4.3 | 0.25 (≈ 0.444 µM) | 4 (≈ 7.11 µM) | 64 (≈ 114 µM) | 64 (≈ 114 µM) | 0.06 (≈ 0.107 µM) | 8.5 |  |  |  |  |  | 
CCn1cc(C(=O)NCC2=C(C(=O)O)N3C(=O)[C@@H](NC(=O)/C(=N\OC(C)(C)C(=O)O)c4csc(N)n4)[C@H]3SC2)c(=O)c2cc(O)c(O)cc21 | 16 (≈ 22.4 µM) | 0.008 (≈ 0.0112 µM) | 0.06 (≈ 0.0838 µM) | 3.5 | 238.5 | 0.06 (≈ 0.0838 µM) | 16 (≈ 22.4 µM) | 0.25 (≈ 0.349 µM) | < 0.008 | < 0.008 | 7.2 | 0.01 | 17.5 |  |  | 99 | 
CCO/N=C(\C(=O)N[C@@H]1C(=O)N2C(C(=O)O)=C(CNC(=O)c3cc(O)c(O)c(Br)c3)CS[C@H]12)c1csc(N)n1 | 2 (≈ 3.12 µM) |  | 0.015 (≈ 0.0234 µM) | 0.7 | 17 | 0.06 (≈ 0.0935 µM) | 4 (≈ 6.24 µM) | 8 (≈ 12.5 µM) | 4 (≈ 6.24 µM) | < 0.008 | 6.9 |  |  |  |  |  | 
CC(C)(O/N=C(\C(=O)N[C@@H]1C(=O)N2C(C(=O)O)=C(CNC(=O)c3ccc(O)c(O)c3)CS[C@H]12)c1csc(N)n1)C(=O)O | 8 (≈ 12.9 µM) | 0.008 (≈ 0.0129 µM) | 0.0125 (≈ 0.0201 µM) | 1.25 | 27.2 | 0.015 (≈ 0.0242 µM) | 16 (≈ 25.8 µM) | 16 (≈ 25.8 µM) |  | < 0.008 | 8.5 |  | 44.8 |  |  | 96.3 | 0.06 (≈ 0.0967 µM)
CC(C)(O/N=C(\C(=O)N[C@@H]1C(=O)N2C(C(=O)O)=C(CNC(=O)c3cc(O)c(O)c(Br)c3)CS[C@H]12)c1csc(N)n1)C(=O)O | 16 (≈ 22.9 µM) |  | 0.03 (≈ 0.0429 µM) | 2.9 | 137.1 | < 0.008 | 16 (≈ 22.9 µM) | 2 (≈ 2.86 µM) | 0.015 (≈ 0.0214 µM) |  | 6.9 | 0.024 | 13.9 |  |  | 99.2 | 
CC(C)(O/N=C(\C(=O)N[C@@H]1C(=O)N2C(C(=O)O)=C(CNC(=O)c3cc(Cl)c(O)c(O)c3Cl)CS[C@H]12)c1csc(N)n1)C(=O)O |  |  |  | 8.2 | 461 |  |  |  |  |  | 6.3 | 0.003 | 16.2 |  |  | 98.7 | 
